This experiment is described as follows: Antioxidant activity, DPPH test. As to conditions: second SC50 column; control; in brackets tolerated range 95%. In kind it is biochemical. The procedure: The antioxidant activity of the dry extract A, obtained as above illustrated in Example 1, of Fadogia ancylantha was determined using the 2,2 diphenyl-1-picrilhydrazilic stable radical (DPPH°) and α-tocopherol as a control, according to the protocol disclosed by Aquino R. et al. in "Phenolic constituents and antioxidant activity of an extract of Anthurium versicolor leaves", J. of Natural products 64, 1019-1023.
The decrease of absorbance measured according to the above protocol is directly correlated with the free-radical scavenger ability of the antioxidant under test.
The DPPH° percentage remaining at the steady state (%DPPH°RIM) is calculated by applying the following formula %DPPH°RIM = (DPPH)° × T1 /(DPPH°) × To × 100 [formula] where T1 is the time to reach the steady state.
The amount of the antioxidant needed to reduce the radical initial concentration to a half (SC50, expressed as µg of the extract/ml) was calculated from the percentage of DPPH°RIM with respect to the antioxidant concentrations used.
All tests were carried out in triplicate and repeated for three times.
On the technique in general: Loss of DPPH colour is used to gauge radical scavenging.

Marks after values point to notes of the source that are not given here.

`Cc1c(C)c2c(c(C)c1O)CC[C@@](C)(CCC[C@H](C)CCC[C@H](C)CCCC(C)C)O2` [α-tocopherol]: the “DPPH test SC50” value is given as 10.1 (8.8-11.4)^c µg/ml of phenols.
